In patent publication US12612394B2, “Herbicidal malonamides” (BASF SE, priority 2020, dated 2026):

Experiments:
[1] = tested on: ECHCG; experiment: greenhouse experiment, pre-emergence treatment; type: in vivo, Echinocloa crus-galli; conditions: application rate 1,000 kg/ha, pre-emergence method
Excerpt: (§1) The culture containers used were plastic flowerpots containing loamy sand with approximately 3.0% of humus as the substrate. The seeds of the test plants were sown separately for each species.
(§2) For the pre-emergence treatment, the active ingredients, which had been suspended or emulsified in water, were applied directly after sowing by means of finely distributing nozzles. The containers were irrigated gently to promote germination and growth and subsequently covered with transparent plastic hoods until the test plants had rooted. This cover caused uniform germination of the test plants, unless this had been impaired by the active ingredients. For the post-emergence treatment, the test plants were first grown to a height of 3 to 15 cm, depending on the plant habit, and only then treated with the active ingredients which had been suspended or emulsified in water. For this purpose, the test plants were either sown directly and grown in the same containers, or they were first grown separately as seedlings and transplanted into the test containers a few days prior to treatment.
(§3) Depending on the species, the test plants were kept at 10-25° C. or 20-35° C., respectively. The test period extended over 2 to 4 weeks. During this time, the test plants were tended, and their response to the individual treatments was evaluated.
(§4) Evaluation was carried out using a scale from 0 to 100. […]

[2] = tested on: AMARE; experiment: greenhouse experiment, pre-emergence treatment; type: in vivo, Amaranthus retroflexus; conditions: application rate 1,000 kg/ha, pre-emergence method
Excerpt: as §1, §2, §3, §4

[3] = tested on: ABUTH; experiment: greenhouse experiment, pre-emergence treatment; type: in vivo, Abutilon theophrasti; conditions: application rate 0.125 kg/ha, pre-emergence method
Excerpt: as §1, §2, §3, §4

[4] = tested on: APESV; experiment: greenhouse experiment, post-emergence treatment; type: in vivo, Apera spica-venti; conditions: application rate 0.500 kg/ha, post-emergence method
Excerpt: as §1, §2, §3, §4

[5] = tested on: ALOMY; experiment: greenhouse experiment, pre-emergence treatment; type: in vivo, Alopercurus myosuroides; conditions: application rate 0.125 kg/ha, pre-emergence method
Excerpt: as §1, §2, §3, §4

[6] = tested on: SETFA; experiment: greenhouse experiment, pre-emergence treatment; type: in vivo, Setaria faberi; conditions: pre-emergence method
Excerpt: as §1, §2, §3, §4

[7] = tested on: AMARE; experiment: greenhouse experiment, post-emergence treatment; type: in vivo, Amaranthus retroflexus; conditions: application rate 0.125 kg/ha, post-emergence method
Excerpt: as §1, §2, §3, §4

[8] = tested on: SETVI; experiment: greenhouse experiment, post-emergence treatment; type: in vivo, Setaria viridis; conditions: application rate 0.250 kg/ha, post-emergence method
Excerpt: as §1, §2, §3, §4

In the case of `COC(=O)[C@H]1C[C@@H](NC(=O)C(OC)C(=O)Nc2cc(Cl)cc(Cl)c2)CO1` (relative stereo) [I.40, methyl cis-4-[[3-(3,5-dichloroanilino)-2-methoxy-3-oxo-propanoyl]amino]tetrahydrofuran-2-carboxylate], the “herbicidal activity against ECHCG” value [1] was “very good (a very good herbicidal activity is given at values of 90 to 100)”.
With `CNC(=O)[C@@H]1C[C@H](NC(=O)C(OC)C(=O)Nc2cc(F)cc(F)c2)CO1` (relative stereo) [I.100] the “herbicidal activity against AMARE” value [2] was “very good (a very good herbicidal activity is given at values of 90 to 100)”.
`COC(C(=O)Nc1cc(Cl)cc(Cl)c1)C(=O)N[C@H]1C=C[C@@H](C(=O)OC2CC2)C1` (relative stereo) [I.185] was tested, and the “herbicidal activity against ABUTH” value [3] was “very good (a very good herbicidal activity is given at values of 90 to 100)”.
`COC(C(=O)Nc1cc(Cl)cc(Cl)c1)C(=O)NC1CO[C@@H](C(=O)O)C1` (stereo in doubt) [I.60, cis-4-[[3-(3,5-dichloroanilino)-2-methoxy-3-oxo-propanoyl]amino]tetrahydrofuran-2-carboxylate] was tested, and the “herbicidal activity against ECHCG” value [1] was “good (A good herbicidal activity is given at values of 70 to 90)”.
For `COC(=O)CC(NC(=O)C(OC)C(=O)Nc1cc(Cl)cc(Cl)c1)C(F)(F)F` (stereo not shown) [I.42], the “herbicidal activity against APESV” value [4] was “good (A good herbicidal activity is given at values of 70 to 90)”.
With `COC(C(=O)Nc1cc(Cl)cc(Cl)c1)C(=O)N[C@H]1C=C[C@@H](C(=O)OC(C)C)C1` (stereo partly shown) [I.159] the “herbicidal activity against ALOMY” value [5] was “very good (a very good herbicidal activity is given at values of 90 to 100)” and the “herbicidal activity against SETFA” value ([6]; application rate 0.125 kg/ha) was “very good (a very good herbicidal activity is given at values of 90 to 100)”.
`COC(=O)C1C=CC(NC(=O)C(OC(F)F)C(=O)Nc2cc(Cl)cc(Cl)c2)C1` (stereo not shown) [I.173] was tested, and the “herbicidal activity against SETFA” value ([6]; application rate 0.250 kg/ha) was “good (A good herbicidal activity is given at values of 70 to 90)”.
With `COC(=O)[C@@H]1C=C[C@H](NC(=O)C(OC)C(=O)Nc2cccc(OC(F)(F)C(F)F)c2)C1` (stereo partly shown) [I.192] the “herbicidal activity against AMARE” value [7] was “good (A good herbicidal activity is given at values of 70 to 90)”.
With `COC(=O)[C@@H]1C=C[C@H](NC(=O)C(OC)C(=O)Nc2cc(OC)c(C)c(OC)c2)C1` (stereo partly shown) [I.197] the “herbicidal activity against SETVI” value [8] was “good (A good herbicidal activity is given at values of 70 to 90)”.
